In patent publication US20140323500A1, “NADPH OXIDASE 4 INHIBITORS AND USE THEREOF” (GENKYOTEX SA, priority 2011, published 2014):
Where two headings read alike, the source gives them in different places.

Key:
[1] = tested on: xanthine/xanthine oxidase; assay: Antioxidant activity in an assay of Example 1 (ROS production by xanthine/xanthine oxidase, Amplex Red); format: biochemical; conditions: as measured in an assay of Example 1
Experimental: Reactive Oxygen Species (ROS) production by membranes expressing either human Nox1, or human Nox2 or human Nox4 or human Nox5 or by xanthine/xanthine oxidase were measured using the Amplex Red (AR) method following a slightly modified version of the manufacturer's instruction manual (Invitrogen). Briefly, membranes or xanthine were incubated in PBS with Amplex Red, Horse Radish Peroxidase (HRP) and appropriated co-factors. ROS production was induced by addition of NADPH to NOX-expressing membrane or by addition of xanthine to xanthine oxidase. Non-specific signal was measured in the absence of membranes or in the absence of xanthine.
Antagonist activity of compounds was measured in the presence of increasing concentrations ranging from 1 nM to 100 μM. After an incubation of 20 min in a plate shaker and incubator (Titramax 1000, VWR) at 37° C. with weak agitation (300 rpm), ROS levels were measured for 10 min in a BMG Fluostar microplate reader with excitation and emission wavelengths of 544 nm and 590 nm respectively.

human Nox4 = target: T1, human Nox4 (Homo sapiens, UniProt Q9NPH5); assay: ROS production by membranes expressing human Nox4, cell-free Amplex Red assay; format: biochemical; conditions: for Ki: read-out: Ki hNox4
T1 construct: expressed in transfected cells; host or cells: T-REx-293 (hNOX4 T-REx-293), tetracycline-induced; membrane fraction
T1 sequence (Q9NPH5 1-578): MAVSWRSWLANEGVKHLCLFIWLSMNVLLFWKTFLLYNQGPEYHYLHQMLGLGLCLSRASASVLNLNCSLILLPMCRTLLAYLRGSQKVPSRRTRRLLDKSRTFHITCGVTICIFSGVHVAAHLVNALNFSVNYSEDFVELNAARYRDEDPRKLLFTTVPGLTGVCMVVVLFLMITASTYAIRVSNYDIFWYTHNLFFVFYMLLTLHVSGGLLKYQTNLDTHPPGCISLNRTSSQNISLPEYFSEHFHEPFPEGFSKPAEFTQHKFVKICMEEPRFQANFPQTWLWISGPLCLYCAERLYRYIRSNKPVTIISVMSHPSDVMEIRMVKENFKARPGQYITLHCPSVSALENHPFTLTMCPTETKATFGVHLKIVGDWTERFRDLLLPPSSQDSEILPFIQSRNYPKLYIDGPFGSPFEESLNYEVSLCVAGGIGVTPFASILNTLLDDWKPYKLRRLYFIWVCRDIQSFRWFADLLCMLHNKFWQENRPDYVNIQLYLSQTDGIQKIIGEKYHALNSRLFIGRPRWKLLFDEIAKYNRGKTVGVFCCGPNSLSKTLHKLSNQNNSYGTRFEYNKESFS
T1 sequence (P13498 2-195 partner limits assumed): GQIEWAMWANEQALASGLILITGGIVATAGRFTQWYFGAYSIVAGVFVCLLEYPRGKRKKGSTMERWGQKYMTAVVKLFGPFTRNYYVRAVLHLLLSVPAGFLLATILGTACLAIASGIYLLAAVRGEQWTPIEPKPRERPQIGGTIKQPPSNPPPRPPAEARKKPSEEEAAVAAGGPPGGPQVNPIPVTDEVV
Summary of the method: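 Membranes from tetracycline-induced (1 μg/ml, 24 h) T-REx cells overexpressing human Nox4, incubated in PBS with Amplex Red, HRP and co-factors; NADPH starts ROS production. Compounds 1 nM-100 μM, 20 min at 37° C.; fluorescence (ex 544/em 590 nm) over 10 min; Ki via Cheng-Prusoff, ≥3 experiments in triplicate.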

murine M-CSF-primed BMNC = assay: RANKL-induced increase in cytosolic Ca2+ by Fura2 fluorescence; format: cell-based, mice; conditions: 20 μmol/L co-applied with RANKL during stimulation (30 hours); wildtype cells; FIG. 4B
Excerpt: A: comparison of cells from wildtype and Nox4−/− mice; B: Effect of a Nox4 inhibitor (Compound (1) or solvent on calcium concentrations in wildtype cells; n≧3; *p<0.05.
Epiphyseal ends of the femora and tibiae were cut off and the bone marrow was flushed out with DMEM containing 10% FCS. Bone marrow stromal cells were collected and plated at a density of 2×10^6 cells/cm^2 in α-MEM containing 10% FCS and 1% penicillin/streptomycin. Following attachment, medium was replaced by basal medium supplemented with 25 ng/ml M-CSF (R&D Systems) for 2 days. Thereafter, cells were cultured for additional 6 days in differentiation medium containing 25 ng/ml M-CSF and 50 ng/ml RANKL (R&D Systems). TRAP staining was performed using the leukocyte acid phosphatase kit (Sigma) following the manufactures instructions according to Mukherjee et al., 2008, supra.
The role of Nox4 for the RANKL-induced increase in cytosolic Ca^2+ was investigated by FURA2 fluorescence as described below. […]
Cells were grown on 96 well plates and differentiated with or without RANKL as described above. […] After another washing step intracellular free Fura-2 and Ca^2+-bound Fura-2 was measured at the wavelength 340 and 380 nm by the ELISA Reader EnVision (PerkinElmer) in 100 μl HEPES Tyrode. […] Eventually the intracellular Ca^2+ was calculated as described by Grynkiewicz et al., 1985, J. Biol. Chem., 260(6):3440-3450.

[2] = tested on: female mice subjected to ovariectomy; assay: Ovariectomy-induced osteoporosis (bone loss) in mice; format: in vivo; conditions: distal femur 6 weeks after ovariectomy, compound 1 at 20 and 60 mg/kg, pamidronat 10 mg/kg once a week, microCT
Experimental: BMD of the left femur was measured by peripheral quantitative computed tomography (QCT) using an XCT Research QCT machine (Stratec Medizintechnik, Pforzheim, Germany). One slice (0.2 mm thick) in the mid-diaphysis of the femur and 3 slices in the distal femoral metaphysis located 1.5, 2, and 2.5 mm proximal to the articular surface of the knee joint were measured. BMD values of the distal femoral metaphysic were calculated as the mean of 3 slices. A voxel size of 0.070 mm and a threshold of 710 mg/cm^3 were used for calculation of BMD as described in Hofbauer et al., 2009, Arthritis Rheum., 60(5):1427-1437.
The control group received daily gavages by the solvent.
To study the latter effect, female mice were subjected to ovariectomy to induce osteoporosis and the effect of pharmacological inhibition of Nox4 with a Nox4 inhibitor as well as acute genetic knockout of the protein was studied. For this, mice were subjected to ovariectomy 8 weeks after birth and treatment at 60 mg/kg with a Nox4 inhibitor of the invention was started 2 days after the operation and continued throughout the study (6 weeks).
3, Hamburg was used which completely blocks osteoclast activity. […] For this, bones were scanned with a skyscan 1176 and bone density was analysed with the integrated software using two phantoms with 0.25 g/cm^3 and 0.75 g/cm^3 as reference. A 2 mm portion of the femur from the tibia plateau was analysed for total and trabecular bone density by the software provided by the manufacturer of the machine. […] For this method, the femurs were loaded to failure by 3-point bending tests using a Zwick Z020/TN2A materials testing machine (Zwick, Ulm, Germany) with a 1 kN force detector, and a force resolution of 0.01N. The distance between the lower supports for the bending tests was 5 mm. Crosshead speed during testing was 0.2 mm/minute for all measurements. From the force-displacement data, ultimate force (Fmax; in N) was calculated.

human Nox2 = target: T2, human Nox2 (Homo sapiens, UniProt P04839); assay: ROS production by membranes expressing human Nox2, cell-free Amplex Red assay; format: biochemical; conditions: read-out: Ki hNox2
T2 construct: host or cells: T-REx-CHO (hNOX2 T-REx-CHO), tetracycline-induced; membrane fraction
T2 sequence (P04839 2-570 limits assumed): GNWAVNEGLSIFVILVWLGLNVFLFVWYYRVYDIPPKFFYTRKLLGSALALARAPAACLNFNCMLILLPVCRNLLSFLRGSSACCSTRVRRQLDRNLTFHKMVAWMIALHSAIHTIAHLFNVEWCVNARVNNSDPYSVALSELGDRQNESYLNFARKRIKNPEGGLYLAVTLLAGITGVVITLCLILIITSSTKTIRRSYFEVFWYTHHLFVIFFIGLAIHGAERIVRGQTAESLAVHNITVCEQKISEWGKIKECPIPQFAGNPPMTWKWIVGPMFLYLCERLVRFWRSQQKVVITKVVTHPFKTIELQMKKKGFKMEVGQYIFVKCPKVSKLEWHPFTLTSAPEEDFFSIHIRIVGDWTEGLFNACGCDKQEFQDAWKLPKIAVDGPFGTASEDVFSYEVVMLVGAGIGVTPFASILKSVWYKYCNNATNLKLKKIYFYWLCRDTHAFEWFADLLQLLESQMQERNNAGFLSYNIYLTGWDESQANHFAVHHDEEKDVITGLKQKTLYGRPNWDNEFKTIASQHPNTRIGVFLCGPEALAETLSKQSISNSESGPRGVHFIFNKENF
T2 sequence (P13498 2-195 partner limits assumed): T1 sequence (P13498 2-195 partner limits assumed)
Summary of the method: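 Membranes from tetracycline-induced (1 μg/ml, 24 h) T-REx-CHO cells stably expressing hNox2 with p22 and cofactors, incubated in PBS with Amplex Red, HRP and cofactors; NADPH starts ROS production. Compounds 1 nM–100 μM, 20 min at 37 °C, then fluorescence (544/590 nm) read for 10 min; Ki by Cheng-Prusoff.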

[3] = cell-free membranes, Amplex Red, Cheng-Prusoff, average of at least three experiments in triplicate

Sequence of xanthine/xanthine oxidase (P47989 whole entry): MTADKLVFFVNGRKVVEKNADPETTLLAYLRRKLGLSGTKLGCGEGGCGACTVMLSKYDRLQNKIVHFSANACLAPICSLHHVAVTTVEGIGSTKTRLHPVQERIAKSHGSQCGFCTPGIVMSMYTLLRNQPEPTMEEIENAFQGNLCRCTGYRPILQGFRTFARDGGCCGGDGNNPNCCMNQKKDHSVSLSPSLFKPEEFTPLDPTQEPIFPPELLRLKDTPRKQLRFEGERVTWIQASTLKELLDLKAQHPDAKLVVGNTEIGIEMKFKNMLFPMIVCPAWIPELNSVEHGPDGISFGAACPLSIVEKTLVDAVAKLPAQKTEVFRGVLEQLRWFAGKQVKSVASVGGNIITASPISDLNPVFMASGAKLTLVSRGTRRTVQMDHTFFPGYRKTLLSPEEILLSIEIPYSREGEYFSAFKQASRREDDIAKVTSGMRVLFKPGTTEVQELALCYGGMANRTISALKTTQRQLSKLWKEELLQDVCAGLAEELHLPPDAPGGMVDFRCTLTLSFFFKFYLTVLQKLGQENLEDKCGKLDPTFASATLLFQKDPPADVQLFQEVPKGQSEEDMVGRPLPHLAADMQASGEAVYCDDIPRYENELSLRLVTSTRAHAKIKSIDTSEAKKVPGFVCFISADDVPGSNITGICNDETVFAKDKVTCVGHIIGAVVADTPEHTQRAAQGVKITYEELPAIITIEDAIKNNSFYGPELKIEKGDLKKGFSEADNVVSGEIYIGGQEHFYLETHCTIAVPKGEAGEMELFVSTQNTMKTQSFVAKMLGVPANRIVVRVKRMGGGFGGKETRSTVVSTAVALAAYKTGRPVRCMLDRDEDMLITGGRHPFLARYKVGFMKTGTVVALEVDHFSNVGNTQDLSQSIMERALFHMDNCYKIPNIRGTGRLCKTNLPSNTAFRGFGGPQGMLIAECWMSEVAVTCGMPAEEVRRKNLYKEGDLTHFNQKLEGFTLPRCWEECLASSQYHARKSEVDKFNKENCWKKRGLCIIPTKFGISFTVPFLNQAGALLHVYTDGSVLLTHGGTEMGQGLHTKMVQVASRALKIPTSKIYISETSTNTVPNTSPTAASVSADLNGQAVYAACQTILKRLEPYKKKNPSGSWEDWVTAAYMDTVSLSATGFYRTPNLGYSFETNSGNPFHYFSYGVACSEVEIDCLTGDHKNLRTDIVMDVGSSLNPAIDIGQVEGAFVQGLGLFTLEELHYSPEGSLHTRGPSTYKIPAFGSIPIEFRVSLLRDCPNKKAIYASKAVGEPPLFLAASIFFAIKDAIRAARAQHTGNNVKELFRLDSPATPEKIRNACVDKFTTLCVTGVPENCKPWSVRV

In the case of CN(C)c1cccc(-c2c3c(=O)n(-c4ccccc4Cl)[nH]c3cc(=O)n2C)c1 [2-(2-chlorophenyl)-4-[3-(dimethylamino)phenyl]-5-methyl-1H-pyrazolo[4,3-c]pyridine-3,6(2H,5H)-dione], the antioxidant activity [1] is reported as “no antioxidant activity”, the “IC50 for Nox4 relative to Nox2” value (human Nox4; Nox4 versus Nox2, assay of Example 1) is reported as “approximately 10 fold” and the “RANKL induced increase in cytosolic Ca2+” value (murine M-CSF-primed BMNC) is reported as “prevented the RANKL induced increase in cytosolic Ca^2+”.
For NCCC(O)(P(=O)(O)O)P(=O)(O)O [pamidronat, reference compound], the “absolute bone density (total)” value ([2]; FIG. 6A) was “increased absolute bone density”, the “absolute trabecular bone density” value ([2]; FIG. 6B) was “increased” and the “relative inhibition of ovarectomy-induced total bone loss” value ([2]; FIG. 6C) was roughly 50%. For the same molecule, the “relative inhibition of trabecular bone loss” value ([2]; FIG. 6D) was “approximately 60%”.
Work on COc1ccccc1-n1[nH]c2cc(=O)n(Cc3cccnc3)c(-c3cc(Cl)ccc3F)c2c1=O [(14), 4-(5-chloro-2-fluorophenyl)-2-(2-methoxyphenyl)-5-(pyridin-3-ylmethyl)-1H-pyrazolo[4,3-c]pyridine-3,6(2H,5H)-dione] yielded a Ki (human Nox4; [3]) of 81 nM and a Ki (human Nox2; [3]) of 695 nM.
Cc1c2c(=O)n(-c3ccccc3Cl)[nH]c2cc(=O)n1Cc1cccnc1 [(15), 2-(2-chlorophenyl)-4-methyl-5-(pyridin-3-ylmethyl)-1H-pyrazolo[4,3-c]pyridine-3,6(2H,5H)-dione] gave a Ki (human Nox4; [3]) of 83 nM and a Ki (human Nox2; [3]) of 907 nM.
CCC(C)(C)C(=O)O[C@H]1C[C@@H](C)C=C2C=C[C@H](C)[C@H](CC[C@@H]3C[C@@H](O)CC(=O)O3)[C@H]21 [Simvastatin, reference compound] showed a Ki (human Nox4; Simvastatin comparison) greater than 133000 nM and a Ki (human Nox2; Simvastatin comparison) greater than 162000 nM.
In the case of O=c1c2c(-c3ccc(Cl)cc3)n(Cc3ccncc3)c(=O)cc2[nH]n1-c1ccccc1Cl [(18), 2-(2-chlorophenyl)-4-(4-chlorophenyl)-5-(pyridin-4-ylmethyl)-1H-pyrazolo[4,3-c]pyridine-3,6(2H,5H)-dione], the Ki (human Nox4; [3]) is reported as 89 nM and the Ki (human Nox2; [3]) is reported as 810 nM.
